Some test systems named below: A549; ACHN; HOP-62; IGROV-1; K562; LOX IMVI; M14; MOLT-4; NCI-H460; OVCAR-3; OVCAR-4; RPMI-8226; SK-MEL-28; SK-MEL-2; SNB-19; SW-620; U-251.
What all share (test): growth of human tumour cells (NCI), 48 h

Data on five molecules can be found in ChEMBL document CHEMBL1201862, “PubChem BioAssay data set” (2004).

SMILES strings stand for the structures.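 Cultured in 96-well plates, cells were exposed to test compound for 48 hours across five concentrations. GI50: concentration for 50% inhibition of growth.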 The source made the active and inactive calls. Cut-off read from the data, not from the text of the source: active = GI50 up to about 1.1 µM and inactive = higher.

`CNC(=O)OCc1c2ccncc2c(C)c2c1[nH]c1ccc(OC)cc12`: the GI50 is 0.39 µM (active) in the test with A549; 0.193 µM (active) with ACHN; 0.156 µM (active) in the test with HOP-62; 0.284 µM (active) in the test with IGROV-1; 0.322 µM (active) with K562; 0.256 µM (active) in the test on LOX IMVI. Further, the GI50 in the test with M14 was 0.57 µM (active); in the test on MOLT-4, 0.0404 µM (active); in the test on NCI-H460, 0.19 µM (active); in the test with OVCAR-3, 0.311 µM (active); in the test with OVCAR-4, 0.256 µM (active); in the test on RPMI-8226, 0.183 µM (active). For the same molecule, the GI50 in the test on SK-MEL-28 is 0.605 µM (active); with SK-MEL-2, 0.181 µM (active); in the test on SNB-19, 0.267 µM (active); in the test on SW-620, 0.164 µM (active); in the test with U-251 it was 0.182 µM (active).

As for `O=C(/C=C/c1ccccc1)/C=C/c1ccccc1`, the GI50 was > 100 µM (inactive) in the test with A549; 18.9 µM (inactive) in the test with ACHN; > 100 µM (inactive) with HOP-62; 28.1 µM (inactive) in the test with IGROV-1; 28.8 µM (inactive) in the test with K562; 16.8 µM (inactive) with LOX IMVI. The GI50 is 19.8 µM (inactive) in the test with M14; 20.7 µM (inactive) in the test with MOLT-4; 27.5 µM (inactive) with NCI-H460; 23 µM (inactive) with OVCAR-3; 22.1 µM (inactive) in the test on OVCAR-4; 39.3 µM (inactive) in the test on RPMI-8226. Besides, the GI50 in the test with SK-MEL-28 was 18.5 µM (inactive); with SK-MEL-2, > 100 µM (inactive); in the test on SW-620, 17.4 µM (inactive); in the test with U-251, 20.6 µM (inactive).

Take `CCOC(=O)NC(=O)c1cn(CCOCCOC(=O)NCCCCCCNC(=O)OCCOCCn2cc(C(=O)NC(=O)OCC)c(=O)[nH]c2=O)c(=O)[nH]c1=O`: the GI50 with A549, in the test with ACHN, with HOP-62, in the test on IGROV-1, in the test with K562 and with LOX IMVI was > 100 µM (inactive) each time. Further, the GI50 with M14, in the test with NCI-H460, in the test with OVCAR-3, with OVCAR-4, in the test on RPMI-8226 and in the test on SK-MEL-28 was > 100 µM (inactive) each time. For the same molecule, the GI50 with SK-MEL-2, in the test on SNB-19, in the test on SW-620 and in the test on U-251 was > 100 µM (inactive) in each case.

In the case of `NS(=O)(=O)c1ccc(NC(=O)c2cccc3c(Nc4ccc(S(N)(=O)=O)cc4)c4ccccc4nc23)cc1`, the GI50 in the test with A549 is > 100 µM (inactive); in the test on ACHN, > 100 µM (inactive); with HOP-62 it was > 100 µM (inactive); in the test with IGROV-1 it was > 100 µM (inactive); in the test with K562, 11.3 µM (inactive); in the test with LOX IMVI it was 5.55 µM (inactive). Moreover, the GI50 with M14 is > 100 µM (inactive); with MOLT-4, 4.5 µM (inactive); in the test on NCI-H460, > 100 µM (inactive); in the test on OVCAR-3, 13.6 µM (inactive); in the test with OVCAR-4, 22.4 µM (inactive); with RPMI-8226, 9.25 µM (inactive). In addition, the GI50 with SK-MEL-28 is > 100 µM (inactive); with SK-MEL-2, 20 µM (inactive); with SNB-19, 30.8 µM (inactive); with SW-620 it was 29.4 µM (inactive); in the test with U-251, 21.2 µM (inactive).

For `CCCCNC(=O)CCN(C(=O)O)S(=O)(=O)c1ccc(NC(=O)c2ccccc2)cc1`, the GI50 in the test on A549 was > 100 µM (inactive); in the test on ACHN, > 100 µM (inactive); with HOP-62, > 100 µM (inactive); with IGROV-1, > 100 µM (inactive); in the test with K562 it was 37 µM (inactive); with LOX IMVI, 18.8 µM (inactive). The GI50 in the test on M14, in the test on MOLT-4, with NCI-H460, with OVCAR-3, in the test with OVCAR-4 and with RPMI-8226 was > 100 µM (inactive) throughout. The GI50 in the test on SK-MEL-28 was > 100 µM (inactive); in the test with SK-MEL-2 it was > 100 µM (inactive); with SNB-19 it was > 100 µM (inactive); with SW-620, 14 µM (inactive); in the test with U-251, 77.6 µM (inactive).
